Reference: US5006528A, “Carbostyril derivatives” (Otsuka Pharmaceutical Co., Ltd., priority 1988, dated 1991)
Like-named read-outs stand apart in the source and are kept apart here.

Key:
[1] = system: α-blocking activity; experiment: Anti-epinephrine lethal activity in mouse; assay type: in vivo; details: read-out: Anti-epinephrine activity (ED50 mg/kg) (B)
[2] = system: dopaminergic receptor; experiment: Anti-apomorphine activity in mouse; details: for ED50: Mus musculus, po, 1 h, read-out: Anti-apomorphine activity (ED50 mg/kg) (A); for (B)/(A): ratio of anti-epinephrine ED50 (B) to anti-apomorphine ED50 (A)
[3] = mouse, oral, 1 hour before lethal dose (1.5 mg/kg) of epinephrine intravenously, survival at 4 hours

Compound: O=C1CCc2ccc(OCCCCN3CCN(c4cccc(Cl)c4Cl)CC3)cc2N1 [Test compound 1, 7-{4-[4-(2,3-dichlorophenyl)-1-piperazinyl]butoxy}-3,4-dihydrocarbostyril]
- ED50 ([1]; Mus musculus, po, 4 h): > 128 mg/kg
- ED50 [2]: 0.18 mg/kg
- (B)/(A) [2]: > 711

Compound: Cc1c(N2CCN(CCCCOc3ccc4c(c3)NC(=O)CC4)CC2)cccc1[N+](=O)[O-] [Test compound 2]
- ED50 [1, 3]: > 128 mg/kg
- ED50 [2]: 0.3 mg/kg
- (B)/(A) [2]: > 426.7

Compound: Cc1cccc(N2CCN(CCCCOc3ccc4c(c3)NC(=O)CC4)CC2)c1Cl [Test compound 3]
- ED50 [1, 3]: > 64 mg/kg
- ED50 [2]: 0.4 mg/kg
- (B)/(A) [2]: > 160

Compound: Cc1cccc(N2CCN(CCCCOc3ccc4c(c3)NC(=O)CC4)CC2)c1Br [Test compound 4]
- ED50 [1, 3]: > 64 mg/kg
- ED50 [2]: 0.4 mg/kg
- (B)/(A) [2]: > 160

Compound: O=C1CCc2ccc(OCCCCN3CCN(c4cc(Cl)cc(Cl)c4)CC3)cc2N1 [Test compound 5]
- ED50 [1, 3]: > 128 mg/kg
- ED50 [2]: 0.5 mg/kg
- (B)/(A) [2]: > 256

Compound: O=C1CCc2ccc(OCCCCN3CCN(c4cc(Cl)cc(Cl)c4Cl)CC3)cc2N1 [Test compound 7]
- ED50 [1, 3]: > 128 mg/kg
- ED50 [2]: 0.4 mg/kg
- (B)/(A) [2]: > 320

Compound: COc1ccccc1N1CCN(CCCCOc2ccc3c(c2)NC(=O)CC3)CC1 [Test compound 8]
- ED50 [1, 3]: 2.5 mg/kg
- ED50 [2]: 0.2 mg/kg
- (B)/(A) [2]: 12.5

Compound: O=C1CCc2ccc(OCCCCN3CCN(c4cccc(Br)c4Br)CC3)cc2N1 [Test compound 9]
- ED50 [1, 3]: > 256 mg/kg
- ED50 [2]: 0.6 mg/kg
- (B)/(A) [2]: > 426.7

Compound: O=c1ccc2ccc(OCCCCN3CCN(c4cccc(Cl)c4Cl)CC3)cc2[nH]1 [Test compound 10]
- ED50 [1, 3]: > 128 mg/kg
- ED50 [2]: 0.36 mg/kg
- (B)/(A) [2]: > 355

Compound: CCOc1ccccc1N1CCN(CCCCOc2ccc3ccc(=O)[nH]c3c2)CC1 [Test compound 11]
- ED50 [1, 3]: 3.8 mg/kg
- ED50 [2]: 0.12 mg/kg
- (B)/(A) [2]: 31.6
